Results reported in patent US12344610B2, “APOL1 inhibitors and methods of use” (Maze Therapeutics, Inc., priority 2022, dated 2025).

test system: human immortalized podocytes inducibly expressing APOL1 G2; assay: APOL1 G2 podocyte cell rescue assay (Example B4); format: cell-based; details: Homo sapiens, differentiated human podocytes, doxycycline-induced APOL1 G2, CellTiter-Glo; geometric mean of at least 2 runs; † = single run
Method in brief: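 Differentiated hTERT-immortalized podocytes (clone D10) with doxycycline-inducible C-terminally HiBiT-tagged APOL1 G2, 6,000 cells/well, treated with doxycycline plus 8-point 3-fold compound series (0.4% DMSO) for 95 h at 37 °C. Viability by CellTiter-Glo luminescence; EC50 as geometric mean of ≥2 runs, each in duplicate.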

Compared with `CS(=O)(=O)C1(c2ncc(OCCN3CCC4(CC3)C(=O)Nc3ccc(C(F)F)cc34)cn2)CC1` [Compound 5, 5-(difluoromethyl)-1′-(2-{[2-(1-methanesulfonylcyclopropyl)pyrimidin-5-yl]oxy}ethyl)-1,2-dihydrospiro[indole-3,4′-piperidin]-2-one], `CS(=O)(=O)C1(c2ncc(OCCN3CCC4(CC3)C(=O)Nc3ccc(OC(F)F)cc34)cn2)CC1` [Compound 6, 5-(difluoromethoxy)-1′-(2-{[2-(1-methanesulfonylcyclopropyl)pyrimidin-5-yl]oxy}ethyl)-1,2-dihydrospiro[indole-3,4′-piperidin]-2-one] is lower in EC50: > 330 nM for the first, 47.7 nM for the second.

First: O=C1CCc2cc(OCCN3CCC4(CC3)C(=O)Nc3ccc(Cl)cc34)cnc2N1[C@H]1C[C@H](O)C1 [Compound 267, 5-chloro-1′-[2-({7-oxo-8-[(trans)-3-hydroxycyclobutyl]-5,6,7,8-tetrahydro-1,8-naphthyridin-3-yl}oxy)ethyl]-1,2-dihydrospiro[indole-3,4′-piperidin]-2-one]
Second: C[C@]1(O)C[C@@H](n2c(=O)cnc3cc(OCCN4CCC5(CC4)C(=O)Nc4ccc(Cl)cc45)cnc32)C1 [Compound 358, 5-chloro-1′-[2-({3-oxo-4-[(cis)-3-hydroxy-3-methylcyclobutyl]-3H,4H-pyrido[2,3-b]pyrazin-7-yl}oxy)ethyl]-1,2-dihydrospiro[indole-3,4′-piperidin]-2-one]
The EC50 of the first is 3.6-fold lower: 6.63 nM for the first, 24 nM for the second.

`CC1(O)CN(c2ncc(OCCN3CCC4(CC3)C(=O)Nc3ccc(C(F)F)cc34)cn2)C1` [Compound 395, 5-(difluoromethyl)-1′-(2-{[2-(3-hydroxy-3-methylazetidin-1-yl)pyrimidin-5-yl]oxy}ethyl)-1,2-dihydrospiro[indole-3,4′-piperidin]-2-one] showed an EC50 of 137 nM.

same assay, conditions: differentiated human podocytes, doxycycline-induced APOL1 G2, CellTiter-Glo; geometric mean of at least 2 runs; † = single run

First: CC(c1ncc(OCCN2CCC3(CC2)C(=O)Nc2ccc(Cl)cc23)cn1)S(C)(=O)=O (single isomer, unassigned) [Compound 2, 5-chloro-1′-[2-({2-[(1S) or (1R)-1-methanesulfonylethyl]pyrimidin-5-yl}oxy)ethyl]-1,2-dihydrospiro[indole-3,4′-piperidin]-2-one]
Second: CS(=O)(=O)C1(c2ccc(OCCN3CCC4(CC3)C(=O)Nc3ccc(Cl)cc34)cc2)CC(O)C1 (stereo not drawn) [Compound 269, 5-chloro-1′-(2-{4-[(cis) or (trans)-3-hydroxy-1-methanesulfonylcyclobutyl]phenoxy}ethyl)-1,2-dihydrospiro[indole-3,4′-piperidin]-2-one]
The EC50 of the first is 2.8-fold lower: 10.7 nM for the first, 30.4 nM for the second.

First: CC(c1ncc(OCCN2CCC3(CC2)C(=O)Nc2ccc(Cl)cc23)cn1)S(C)(=O)=O (single isomer, unassigned) [Compound 3, 5-chloro-1′-[2-({2-[(1R) or (1S)-1-methanesulfonylethyl]pyrimidin-5-yl}oxy)ethyl]-1,2-dihydrospiro[indole-3,4′-piperidin]-2-one]
Second: CS(=O)(=O)C1(c2ccc(OCCN3CCC4(CC3)C(=O)Nc3ccc(Cl)cc34)cc2)CC(O)C1 (stereo not drawn) [Compound 270, 5-chloro-1′-(2-{4-[(trans) or (cis)-3-hydroxy-1-methanesulfonylcyclobutyl]phenoxy}ethyl)-1,2-dihydrospiro[indole-3,4′-piperidin]-2-one]
The EC50 of the first is 8-fold higher: 23.5 nM for the first, 2.92 nM for the second. The second is the more potent here.

`CC(O)c1ncc(OCCN2CCC3(CC2)C(=O)Nc2ccc(C#N)cc23)cc1C(F)(F)F` (single isomer, unassigned) [Compound 376, 1′-[2-({6-[(1S) or (1R)-1-hydroxyethyl]-5-(trifluoromethyl)pyridin-3-yl}oxy)ethyl]-2-oxo-1,2-dihydrospiro[indole-3,4′-piperidine]-5-carbonitrile] was tested, and the EC50 was 6.21 nM.
`CC(O)c1ncc(OCCN2CCC3(CC2)C(=O)Nc2ccc(C#N)cc23)cc1C(F)(F)F` (single isomer, unassigned) [Compound 377, 1′-[2-({6-(1S) or (1R)-1-hydroxyethyl]-5-(trifluoromethyl)pyridin-3-yl}oxy)ethyl]-2-oxo-1,2-dihydrospiro[indole-3,4′-piperidine]-5-carbonitrile] gave an EC50 of 24.4 nM.
